According to patent US9120756B2, “Substituted phenylureas and phenylamides as vanilloid receptor ligands” (Gruenenthal GmbH, priority 2009, dated 2015):

Key:
[1] = target: rat-species vanilloid receptor 1 (VR1/TRPV1) (Rattus norvegicus (Rat), UniProt O35433); assay: FLIPR Ca2+ influx assay on rat dorsal root ganglia cells, capsaicin stimulus (method I); assay type: cell-based; settings: capsaicin (Cap)
mice = assay: Formalin test carried out on mice (FTm); assay type: in vivo; settings: 1 po, percentage change relative to control
Method: In the formalin test, the testing to determine the antinociceptive effect of the compounds according to the invention is carried out on male mice (NMRI, 20 to 30 g body weight, Iffa, Credo, Belgium).
In the formalin test as described by D. Dubuisson et al., Pain 1977, 4, 161-174, a distinction is drawn between the first (early) phase (0 to 15 minutes after the injection of formalin) and the second (late) phase (15 to 60 minutes after the injection of formalin). The early phase, as an immediate reaction to the injection of formalin, is a model of acute pain, whereas the late phase is regarded as a model of persistent (chronic) pain (T. J. Coderre et al., Pain 1993, 52, 259-285). The corresponding descriptions in the literature are introduced herewith by way of reference and form part of the disclosure.
The compounds according to the invention are tested in the second phase of the formalin test to obtain information about the effects of substances on chronic/inflammatory pain. […]
Subsequently, the nociceptive behaviour is continuously detected by observing the animals over a test period of three minutes in the second (late) phase of the formalin test (21 to 24 minutes after the injection of formalin). The pain behaviour is quantified by adding up the seconds over which the animals display licking and biting of the paw in question during the test period. […]

Chain of rat-species vanilloid receptor 1 (VR1/TRPV1) (O35433 whole entry): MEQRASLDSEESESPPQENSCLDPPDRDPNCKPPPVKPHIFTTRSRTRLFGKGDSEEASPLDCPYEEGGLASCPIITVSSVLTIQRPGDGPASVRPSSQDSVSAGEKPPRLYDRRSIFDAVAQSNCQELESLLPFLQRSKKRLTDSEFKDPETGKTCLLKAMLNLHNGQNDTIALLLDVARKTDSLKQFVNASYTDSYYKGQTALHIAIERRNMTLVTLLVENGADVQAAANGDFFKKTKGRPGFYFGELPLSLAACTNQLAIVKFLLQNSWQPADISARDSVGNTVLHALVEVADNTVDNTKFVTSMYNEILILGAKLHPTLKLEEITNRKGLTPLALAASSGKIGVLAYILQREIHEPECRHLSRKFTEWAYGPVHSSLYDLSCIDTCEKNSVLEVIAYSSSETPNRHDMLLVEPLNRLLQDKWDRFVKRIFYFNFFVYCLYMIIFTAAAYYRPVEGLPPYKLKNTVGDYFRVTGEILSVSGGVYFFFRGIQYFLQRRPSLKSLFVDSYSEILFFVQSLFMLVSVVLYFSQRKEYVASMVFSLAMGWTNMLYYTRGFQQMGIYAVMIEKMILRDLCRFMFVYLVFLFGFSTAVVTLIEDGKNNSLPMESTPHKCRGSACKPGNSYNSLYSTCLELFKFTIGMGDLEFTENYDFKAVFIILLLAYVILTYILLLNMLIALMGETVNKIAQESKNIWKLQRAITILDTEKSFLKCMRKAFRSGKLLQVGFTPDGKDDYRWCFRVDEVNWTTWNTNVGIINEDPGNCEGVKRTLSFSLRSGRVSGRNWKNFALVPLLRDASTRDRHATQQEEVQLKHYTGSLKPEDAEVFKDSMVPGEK

O=C(Cc1cccc(F)c1)NCc1cc(C(F)(F)F)nn1-c1cccc(Cl)c1 [Example 74, N-((1-(3-chlorophenyl)-3-(trifluoromethyl)-1H-pyrazol-5-yl)methyl)-2-(3-fluorophenyl)acetamide] showed a Ki [1] of 85 nM and an FTm (mice) of 13%.
